PubChem BioAssay (NCI)
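Grown in 96-well plates, cells were treated for 48 hours with each compound at five concentrations. Insufficient inhibition: endpoint recorded as highest concentration tested. GI50 is the concentration that inhibits growth by half. TGI denotes the concentration required for complete inhibition of growth.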

Legend:
Test in all cases: inhibition of tumour cell growth, NCI panel, 48 h
KM12 colon = tested on: KM12 colon
RPMI-8226 leukemia = tested on: RPMI-8226 leukemia
SF-539 CNS = tested on: SF-539 CNS
786-0 renal = tested on: 786-0 renal
HT29 colon = tested on: HT29 colon
ACHN renal = tested on: ACHN renal
OVCAR-3 ovarian = tested on: OVCAR-3 ovarian
HCC-2998 colon = tested on: HCC-2998 colon
A549 NSCLC = tested on: A549 NSCLC
NCI-H23 lung = tested on: NCI-H23 lung
HOP-62 NSCLC = tested on: HOP-62 NSCLC
MOLT-4 leukemia = tested on: MOLT-4 leukemia
CCRF-CEM leukemia = tested on: CCRF-CEM leukemia
CAKI-1 renal = tested on: CAKI-1 renal
LOX IMVI melanoma = tested on: LOX IMVI melanoma
UACC-257 melanoma = tested on: UACC-257 melanoma
UO-31 renal = tested on: UO-31 renal
OVCAR-8 ovarian = tested on: OVCAR-8 ovarian
MDA-MB-435 = tested on: MDA-MB-435
OVCAR-5 ovarian = tested on: OVCAR-5 ovarian
U251 CNS = tested on: U251 CNS
SW-620 colon = tested on: SW-620 colon
HCT-15 colon = tested on: HCT-15 colon
HOP-92 NSCLC = tested on: HOP-92 NSCLC
MALME-3M melanoma = tested on: MALME-3M melanoma
NCI/ADR-RES ovarian = tested on: NCI/ADR-RES ovarian
NCI-H226 lung = tested on: NCI-H226 lung
SNB-19 CNS = tested on: SNB-19 CNS
SN12C renal = tested on: SN12C renal
HS 578T breast = tested on: HS 578T breast
MDA-MB-231 breast = tested on: MDA-MB-231 breast
SK-MEL-5 melanoma = tested on: SK-MEL-5 melanoma
SNB-75 CNS = tested on: SNB-75 CNS
SF-268 CNS = tested on: SF-268 CNS
MCF7 breast = tested on: MCF7 breast
SK-MEL-28 melanoma = tested on: SK-MEL-28 melanoma
M14 melanoma = tested on: M14 melanoma
SF-295 CNS = tested on: SF-295 CNS
OVCAR-4 ovarian = tested on: OVCAR-4 ovarian
COLO 205 colon = tested on: COLO 205 colon
PC-3 prostate = tested on: PC-3 prostate
SK-OV-3 ovarian = tested on: SK-OV-3 ovarian
SR leukemia = tested on: SR leukemia
SK-MEL-2 melanoma = tested on: SK-MEL-2 melanoma
DU-145 prostate = tested on: DU-145 prostate
RXF 393 renal = tested on: RXF 393 renal
A498 renal = tested on: A498 renal
TK-10 renal = tested on: TK-10 renal
NCI-H460 lung = tested on: NCI-H460 lung
HL-60(TB) leukemia = tested on: HL-60(TB) leukemia
EKVX NSCLC = tested on: EKVX NSCLC
IGROV1 ovarian = tested on: IGROV1 ovarian
BT-549 breast = tested on: BT-549 breast
K-562 leukemia = tested on: K-562 leukemia
HCT-116 colon = tested on: HCT-116 colon
T-47D breast = tested on: T-47D breast
UACC-62 melanoma = tested on: UACC-62 melanoma

CCOC(=O)c1c(NCC(=O)Nc2ccc(Br)cc2)sc2c1CCCC2
GI50 (KM12 colon): 1.97 µM
TGI (KM12 colon): 4.1 µM
GI50 (RPMI-8226 leukemia): 2.09 µM
TGI (RPMI-8226 leukemia): 5.32 µM
GI50 (SF-539 CNS): 1.73 µM
TGI (SF-539 CNS): 3.18 µM
GI50 (786-0 renal): 2.26 µM
TGI (786-0 renal): 6.04 µM
GI50 (HT29 colon): 1.91 µM
TGI (HT29 colon): 3.98 µM
GI50 (ACHN renal): 1.74 µM
TGI (ACHN renal): 3.29 µM
GI50 (OVCAR-3 ovarian): 1.61 µM
TGI (OVCAR-3 ovarian): 3.12 µM
GI50 (HCC-2998 colon): 1.82 µM
TGI (HCC-2998 colon): 3.36 µM
GI50 (A549 NSCLC): 2.78 µM
TGI (A549 NSCLC): 8.46 µM
GI50 (NCI-H23 lung): 1.81 µM
TGI (NCI-H23 lung): 4.6 µM
GI50 (HOP-62 NSCLC): 2.32 µM
TGI (HOP-62 NSCLC): 5.71 µM
GI50 (MOLT-4 leukemia): 0.712 µM
TGI (MOLT-4 leukemia): 4.66 µM
GI50 (CCRF-CEM leukemia): 0.801 µM
TGI (CCRF-CEM leukemia): 6.72 µM
GI50 (CAKI-1 renal): 2.06 µM
TGI (CAKI-1 renal): 7.46 µM
GI50 (LOX IMVI melanoma): 0.829 µM
TGI (LOX IMVI melanoma): 2.81 µM
GI50 (UACC-257 melanoma): 2.8 µM
TGI (UACC-257 melanoma): 8.2 µM
GI50 (UO-31 renal): 1.5 µM
TGI (UO-31 renal): 3.3 µM
GI50 (OVCAR-8 ovarian): 4 µM
TGI (OVCAR-8 ovarian): > 100 µM
GI50 (MDA-MB-435): 1.9 µM
TGI (MDA-MB-435): 5.58 µM
GI50 (OVCAR-5 ovarian): 2.02 µM
TGI (OVCAR-5 ovarian): 3.77 µM
GI50 (U251 CNS): 1.51 µM
TGI (U251 CNS): 3.17 µM
GI50 (SW-620 colon): 2.28 µM
TGI (SW-620 colon): 6.1 µM
GI50 (HCT-15 colon): 1.38 µM
TGI (HCT-15 colon): 3.47 µM
GI50 (HOP-92 NSCLC): 1.42 µM
TGI (HOP-92 NSCLC): 3.84 µM
GI50 (MALME-3M melanoma): 1.77 µM
TGI (MALME-3M melanoma): 3.81 µM
GI50 (NCI/ADR-RES ovarian): 2.6 µM
TGI (NCI/ADR-RES ovarian): 8.51 µM
GI50 (NCI-H226 lung): 1.72 µM
TGI (NCI-H226 lung): 6.48 µM
GI50 (SNB-19 CNS): 2.2 µM
TGI (SNB-19 CNS): 6.31 µM
GI50 (SN12C renal): 2.51 µM
TGI (SN12C renal): 7.16 µM
GI50 (HS 578T breast): 2.89 µM
TGI (HS 578T breast): 32.3 µM
GI50 (MDA-MB-231 breast): 2.08 µM
TGI (MDA-MB-231 breast): 5.21 µM
GI50 (SK-MEL-5 melanoma): 1.65 µM
TGI (SK-MEL-5 melanoma): 3.08 µM
GI50 (SNB-75 CNS): 2.22 µM
TGI (SNB-75 CNS): 14.3 µM
GI50 (SF-268 CNS): 2.06 µM
TGI (SF-268 CNS): 8.24 µM
GI50 (MCF7 breast): 1.48 µM
TGI (MCF7 breast): 3.51 µM
GI50 (SK-MEL-28 melanoma): 1.71 µM
TGI (SK-MEL-28 melanoma): 3.49 µM
GI50 (M14 melanoma): 1.9 µM
TGI (M14 melanoma): 4.9 µM
GI50 (SF-295 CNS): 3.95 µM
TGI (SF-295 CNS): 14.3 µM
GI50 (OVCAR-4 ovarian): 1.74 µM
TGI (OVCAR-4 ovarian): 4.77 µM
GI50 (COLO 205 colon): 2.01 µM
TGI (COLO 205 colon): 4.52 µM
GI50 (PC-3 prostate): 2.46 µM
TGI (PC-3 prostate): 9.71 µM
GI50 (SK-OV-3 ovarian): 3.49 µM
TGI (SK-OV-3 ovarian): 10.9 µM
GI50 (SR leukemia): 1.22 µM
TGI (SR leukemia): 5.33 µM
GI50 (SK-MEL-2 melanoma): 1.84 µM
TGI (SK-MEL-2 melanoma): 5.49 µM
GI50 (DU-145 prostate): 1.68 µM
TGI (DU-145 prostate): 3.28 µM
GI50 (RXF 393 renal): 1.34 µM
TGI (RXF 393 renal): 2.76 µM
GI50 (A498 renal): 1.85 µM
TGI (A498 renal): 5.67 µM
GI50 (TK-10 renal): 1.74 µM
TGI (TK-10 renal): 3.46 µM
GI50 (NCI-H460 lung): 1.94 µM
TGI (NCI-H460 lung): 4.31 µM
GI50 (HL-60(TB) leukemia): 1.57 µM
TGI (HL-60(TB) leukemia): 4.37 µM
GI50 (EKVX NSCLC): 1.81 µM
TGI (EKVX NSCLC): 4.91 µM
GI50 (IGROV1 ovarian): 2.13 µM
TGI (IGROV1 ovarian): 12.1 µM
GI50 (BT-549 breast): 1.45 µM
TGI (BT-549 breast): 3.97 µM
GI50 (K-562 leukemia): 1.66 µM
TGI (K-562 leukemia): 7.09 µM
GI50 (HCT-116 colon): 1.63 µM
TGI (HCT-116 colon): 3.81 µM
GI50 (T-47D breast): 1.76 µM
TGI (T-47D breast): 4.61 µM
GI50 (UACC-62 melanoma): 1.48 µM
TGI (UACC-62 melanoma): 3.16 µM
